Source: PubChem BioAssay AID1508612

Experiment: passive permeability, PAMPA, ADME assay (AID 1508612)
Conditions: pH 7.4, 30.0 min, 50.0 µM
In the case of `CC(C)(C)NS(=O)(=O)c1ccc(-c2ccc3[nH]nc(N)c3c2)cc1`, the Papp is reported as 5640 nm/s. In the case of `FC(F)(F)c1ccccc1-c1nc(NCc2cccs2)c2ccccc2n1`, the Papp is reported as over 10000 nm/s. `O=c1c2ccccc2nc(/C=C/c2cccnc2)n1Cc1ccccc1` showed a Papp of over 10000 nm/s. In the case of `CCCCCn1c(CCCNC(=O)c2ccccc2OC)nc2ccccc21`, the Papp is reported as over 10000 nm/s. With `CNC(=O)c1ccccc1Nc1nc(Nc2ccc(N3CCOCC3)cc2OC)ncc1Cl` the Papp was over 10000 nm/s. For `O=C(Nc1nnc(-c2ccco2)o1)c1ccc(Cl)cc1`, the Papp was 242 nm/s. With `O=C(O)c1ccc(Nc2nc(-c3cc4ccccc4oc3=O)cs2)cc1O` the Papp was 86.2 nm/s. In the case of `CC(C)(C)c1ccc(C(=O)Nc2cn3cc(-n4ccnc4)ccc3n2)cc1`, the Papp is reported as 9520 nm/s. With `COc1ccc2c(c1)N(C[C@H](C)CN(C)C)c1ccccc1S2` the Papp was 9020 nm/s. `O=C(CCCN1CCC2(CC1)C(=O)N(Cc1cccc(F)c1)CN2c1ccccc1)c1ccc(F)cc1` showed a Papp of 210 nm/s. `CCOC(=O)C1CCN(C(=O)Nc2ccc3c(c2)nc(C)n3C)CC1` gave a Papp of 384 nm/s. Work on `CC1CCN(C(=O)c2ccc(-c3ccc(N4CCSCC4)nc3)cc2)CC1` yielded a Papp of over 10000 nm/s. In the case of `Nc1ncc(S(=O)(=O)N2CCOCC2)s1`, the Papp is reported as 155 nm/s. With `CCOC(=O)c1cc(-c2ccco2)nc2c1c(C)nn2CCC#N` the Papp was 9890 nm/s. `O=C(Nc1ncnc2sc3c(c12)CCC3)c1ccco1` showed a Papp of 3690 nm/s. For `O=S(=O)(Nc1ccccc1)c1ccc(NCc2cccc(Cl)c2O)cc1`, the Papp was 4870 nm/s. In the case of `Cc1nn(Cc2ccc(Cl)cc2)c(C)c1NC(=O)c1cc(-c2ccc3c(c2)OCO3)on1`, the Papp is reported as 8360 nm/s. Work on `Clc1ccc(C2=Nn3c(nnc3-c3ccncc3)SC2)cc1` yielded a Papp of 3720 nm/s. With `Cc1ccc(S(=O)(=O)Nc2cnccc2C(=O)Nc2nc(-c3ccc(C)c(C)c3)cs2)cc1` the Papp was over 10000 nm/s. In the case of `COc1cccc(CNC(=O)CCCn2nc(C)c3c(C)n(-c4ccc(C)cc4)nc3c2=O)c1OC`, the Papp is reported as 6190 nm/s. In the case of `Cc1ccc(NS(=O)(=O)c2c(C)[nH]c(C)c2C(=O)N2CCCC2)cc1Cl`, the Papp is reported as 3870 nm/s. In the case of `Cc1ccc(-c2csc(N3CCC(C(N)=O)CC3)n2)cc1`, the Papp is reported as 7110 nm/s. `NC(=O)C1CCN(c2nccc(Cl)n2)CC1` showed a Papp of 373 nm/s. Work on `CCOC(=O)C1=C(CN(CC)Cc2ccccc2)NC(=O)NC1c1ccc(OC(C)C)cc1` (stereo not drawn) yielded a Papp of over 10000 nm/s. Compound `CN(C)S(=O)(=O)c1cccc(NC(=O)c2ccc[nH]2)c1` has a Papp of 1790 nm/s. `COc1ccc(NC(=O)c2[nH]c(C)c(C(C)=O)c2C)cc1S(=O)(=O)N(C)C` gave a Papp of 3290 nm/s. For `O=C(Nc1ccc(Cl)cc1)C(NS(=O)(=O)c1cccs1)c1ccccc1` (stereo not drawn), the Papp was under 10 nm/s. Work on `CCOC(=O)c1nc(Nc2ccc(N3CCC(C)CC3)cc2)c2ccccc2n1` yielded a Papp of over 10000 nm/s. With `Cc1cccc(C(=O)Nc2ccc(N3CCC(N4CCCCC4)CC3)c(C(=O)O)c2)c1` the Papp was 52 nm/s. `CNC(=O)c1ccc(C)c(-n2c(C)cc(OCc3ccc(F)cc3F)c(Br)c2=O)c1` showed a Papp of 6950 nm/s. In the case of `COc1ccc(CN2CCNc3cc(Nc4ccccc4)ncc3C2)cn1`, the Papp is reported as 8340 nm/s. Work on `Cc1cc(-c2nnc3n2CCCCC3)c(C)n1-c1cccc(C#N)c1` yielded a Papp of 2290 nm/s. Compound `COc1ccc(OC)c(-c2nc3c(C#N)c[nH]n3c2NC2CCCCC2)c1` has a Papp of over 10000 nm/s. Compound `O=C(O)c1cnc(-c2ccc(F)cc2)nc1-c1ccncc1` has a Papp of under 10 nm/s. `Cc1ccc(C(N)=O)cc1Nc1nccc(-c2cn(C(C)C)c3cnccc23)n1` gave a Papp of 8770 nm/s. For `CC(C)NC(=O)c1nc(-c2ccc(Cl)nc2)c2cnccn12`, the Papp was 7230 nm/s. In the case of `Cc1ccnc(NC(=S)N2CCC(c3cccc(C(F)(F)F)c3)CC2)c1`, the Papp is reported as 6720 nm/s. For `Cc1ccc(CC(=O)Nc2nc(-c3ccc4c(c3)CCN4C(=O)c3ccccc3C)c(C)s2)cc1C`, the Papp was 2220 nm/s. Compound `CC/C=C\C/C=C\C/C=C\C/C=C\C/C=C\C/C=C\CCC(=O)NCCO` has a Papp of 2980 nm/s. In the case of `Cc1cnc(-c2ccccc2C(C)C)nc1NCC1CCN(C2COC2)CC1`, the Papp is reported as over 10000 nm/s. Work on `COCCOc1cnc2ccn([C@H](C)c3nnc4c(F)cc(-c5cnn(C)c5)cn34)c(=O)c2c1` yielded a Papp of 151 nm/s. Compound `CCOc1ccc(CCN(C)C(=O)c2cc3sccc3n2Cc2ccccc2)cc1OCC` has a Papp of over 10000 nm/s. `CC1CCC(n2c3cnccc3c3cnc(Nc4ccc5c(n4)CCN(C(=O)CO)C5)nc32)CC1` (stereo not drawn) showed a Papp of 1350 nm/s. For `CCOc1ccc(Nc2nc(C)c(NC(=O)c3ccc(C)cc3)c(Nc3ccc(OCC)cc3)n2)cc1`, the Papp was 2110 nm/s. `Nc1ccc(CNc2ccc([S+](=O)([O-])Nc3nccs3)cc2)c(O)c1` showed a Papp of under 10 nm/s. For `CC(Cc1ccc(O)cc1)NCC(O)c1cc(O)cc(O)c1` (stereo not drawn), the Papp was 19 nm/s. Compound `NC(=O)C1CCN(c2nc(-c3cc4ccccc4o3)cs2)CC1` has a Papp of 662 nm/s. `COCCn1ccc2c(C3=CCOCC3)nc(-c3cccc(NC(C)=O)c3)cc21` showed a Papp of 4640 nm/s. `c1c[nH]c(C2CCN(c3ncc(-c4ccc5c(c4)OCCCO5)s3)CC2)n1` showed a Papp of over 10000 nm/s. With `COc1ccc(NC(=O)c2cccnc2)cc1S(=O)(=O)Nc1ccc(Br)cc1` the Papp was 5140 nm/s. With `COc1cc(OC)c2c(=O)[nH]c(-c3cc(C)c(OCCO)c(C)c3)nc2c1` the Papp was 5400 nm/s. `Cc1cccc(-n2cnc3cc(C(=O)N4CCCCC4)ccc32)c1` gave a Papp of 9120 nm/s. Work on `Cc1nn2c(c1-c1ccccc1Oc1ccccc1)N(Cc1ccccc1O)CCC2` yielded a Papp of over 10000 nm/s. `CCOc1cc(CNc2ccc(O)cc2)ccc1OCc1ccc(Cl)cc1` gave a Papp of under 10 nm/s. Compound `Brc1ccc(-c2csc(N3CCNCC3)n2)cc1` has a Papp of over 10000 nm/s. With `CCOc1ccc(CCNC(=O)c2ccc(C(=O)c3ccccc3)cc2)cc1OCC` the Papp was over 10000 nm/s. Compound `CCOC(=O)C1CCN(C(=O)C2(NC(=O)Nc3ccccc3Cl)CCCC2)CC1` has a Papp of 2290 nm/s. In the case of `CC[C@H](C)[C@@H]([C@@H](CC(=O)N1CCC[C@H]1[C@H](OC)[C@@H](C)C(=O)N[C@@H](Cc1ccccc1)c1nccs1)OC)N(C)C(=O)[C@@H](NC(=O)[C@H](C(C)C)N(C)C)C(C)C`, the Papp is reported as 3410 nm/s. `Cc1ccccc1C(=O)N1CCc2cc(-c3nc(NC(=O)Cc4ccc5ccccc5c4)sc3C)ccc21` gave a Papp of under 10 nm/s. For `C=Cc1ccc(Cn2c(C(=O)O)c(CNCc3ccccc3)c3ccc(OC)cc32)cc1`, the Papp was 9000 nm/s. Compound `Cc1ccc(NC(=O)CSc2ncc(S(=O)(=O)c3ccc(C(C)C)cc3)c(=O)[nH]2)cc1C` has a Papp of 18 nm/s. For `Cc1cccc(CNc2ccc(S(=O)(=O)Nc3nccs3)cc2)c1O`, the Papp was 79 nm/s. Compound `CC1=Nc2cc(C(=O)NC3CCCC3)ccc2Sc2ccc(C)cc21` has a Papp of over 10000 nm/s. For `Cc1noc(C)c1-c1ccc2ncnc(N3CCC(C(=O)O)CC3)c2c1`, the Papp was 15 nm/s. Work on `Cc1ccc(NC(=O)c2c(N3CCCC3=O)c3cc(C)ccc3n2C)c(C)c1` yielded a Papp of over 10000 nm/s. With `CCOC(=O)c1nn(-c2ccccc2)c(=O)c2c(N)scc12` the Papp was over 10000 nm/s. Work on `CCOc1ccc(CCNC(=O)c2cc3c(s2)CCC3)cc1OCC` yielded a Papp of over 10000 nm/s. For `O=C(c1ccc2c(c1)ncn2-c1ccccc1)N1CCCCC1`, the Papp was 4720 nm/s. `CC(=O)OCCN1C(=O)c2c(C)nc3ccc(S(=O)(=O)N4CCOCC4)cc3c2C1=O` showed a Papp of 6650 nm/s. `CCOC(=O)c1nn(-c2ccc(OC)cc2)c(=O)c2c(N)scc12` showed a Papp of 1870 nm/s. For `Cc1cnc(CNc2nc(-c3cccc(NS(C)(=O)=O)c3)nc3ccccc23)cn1`, the Papp was over 10000 nm/s. For `CN1CCN(c2cc(-c3nc(Nc4ccc(F)c(F)c4)c4ccccc4n3)ccn2)CC1`, the Papp was over 10000 nm/s. Compound `N#Cc1nc(-c2cccc3ccccc23)oc1Nc1ccccc1` has a Papp of 8210 nm/s. Work on `Cc1cnc(NC(=O)c2ccc(-c3cccc([N+](=O)[O-])c3)o2)s1` yielded a Papp of 479 nm/s. `Cc1cc(-c2nnc3n2CCCCC3)c(C)n1-c1cccnc1` gave a Papp of 492 nm/s. With `Brc1ccc(-c2csc(N3CCCCC3)n2)cc1` the Papp was 1110 nm/s. Compound `CC(C)N(CCC(=O)c1ccc2ccccc2c1)Cc1ccccc1` has a Papp of over 10000 nm/s. Work on `NC(=O)C1CCN(c2nc(-c3ccccc3)cs2)CC1` yielded a Papp of 5980 nm/s. For `O=c1cc(CN2CCCN(c3ccc(C(F)(F)F)cn3)CC2)nc2ccccn12`, the Papp was over 10000 nm/s. Compound `O=C1Nc2ccccc2C1Cc1cc(Cl)c(O)c(Cl)c1` (stereo not drawn) has a Papp of 88 nm/s. In the case of `Fc1ccccc1Nc1nc(-c2ccncc2)nc2ccccc12`, the Papp is reported as 8390 nm/s. `O=C(C1CC(=O)N(c2n[nH]c3ccccc23)C1)N1CCC(c2noc3cc(F)ccc23)CC1` (stereo not drawn) gave a Papp of 7260 nm/s. `Cc1cc(-c2nnc3n2CCCCC3)c(C)n1-c1ccc(Cl)cc1` gave a Papp of over 10000 nm/s. Compound `Fc1ccc(Cl)cc1-c1nc(Nc2ccncc2)c2nccnc2n1` has a Papp of over 10000 nm/s. `CC(=O)Nc1ccc(OCc2cn(CC(=O)c3ccc(O)cc3)nn2)cc1` gave a Papp of under 10 nm/s. For `CCc1c(C)nc2c(-c3cnn(-c4cc(CO)ccn4)c3)c[nH]n2c1=O`, the Papp was 16.2 nm/s. Work on `O=C(c1ccc2ccccc2c1)N1CCN(c2ccc(O)cc2)CC1` yielded a Papp of 5270 nm/s. In the case of `COc1ccc(OC)c(-c2nnc3ccc(-c4ccc(OC)c(O[C@@H]5CCOC5)c4)nn23)c1`, the Papp is reported as 8770 nm/s. For `O=C(c1nc(-c2ccc(Cl)nc2)c2ccccn12)N1CCCC1`, the Papp was over 10000 nm/s. In the case of `O=C(Nc1nc(-c2ccccc2)cs1)c1ccncc1NS(=O)(=O)c1ccc2ccccc2c1`, the Papp is reported as over 10000 nm/s. Work on `Cc1nn2c(c1-c1ccccc1OCc1ccccc1)N(C(=O)Cc1ccc3c(c1)OCO3)CCC2` yielded a Papp of over 10000 nm/s. `CCc1ccc(NC(=O)c2[nH]c(C)c(C(C)=O)c2C)cc1S(=O)(=O)Nc1ccc(Br)cc1` gave a Papp of under 10 nm/s. `COc1cc2c(cc1OCCCN1CCCC1)N=C(N)C21CCC1` gave a Papp of 60.8 nm/s. `CC[C@@H](CO)NC(=O)[C@@H]1C=C2c3cccc4c3c(cn4C)C[C@H]2N(C)C1` gave a Papp of 3960 nm/s. `COc1cc(/C=C2\C(=O)Nc3ccccc32)ccc1O` gave a Papp of over 10000 nm/s. `O=C(c1cccs1)c1nonc1C(=O)c1cccs1` gave a Papp of 8060 nm/s. For `C/C=C1/CN2CC[C@@]34c5ccccc5N(C)[C@@H]3[C@@H]2C[C@@H]1[C@H]4C(=O)OC`, the Papp was 8950 nm/s. For `O=C1c2ccccc2C2=Nc3ccccc3SC(c3ccc(Cl)cc3)C12` (stereo not drawn), the Papp was under 10 nm/s. With `Fc1ccc(F)c(Nc2nc(-c3ccncc3)nc3ccccc23)c1` the Papp was 4550 nm/s. Work on `CC1(C)C(=O)NC2=C1C(=O)C(=O)c1ccccc12` yielded a Papp of 125 nm/s. In the case of `COC(=O)[C@H](Cc1ccc(O[S+](=O)([O-])c2cccc3cnccc23)cc1)N[S+](=O)([O-])c1ccc2cnccc2c1`, the Papp is reported as over 10000 nm/s. `O=C(c1cnn(-c2cccc(F)c2)c1-n1cccc1)N1CCN(c2ccccc2F)CC1` showed a Papp of over 10000 nm/s. `CCOc1ccc(CCNC(=O)c2cc3sccc3n2C(C)C)cc1OCC` gave a Papp of 8970 nm/s. `O=C(Cc1nc2ccc(Cl)cc2[nH]1)Nc1ccc(S(=O)(=O)Nc2nccs2)cc1` showed a Papp of under 10 nm/s. Work on `Cc1ccc(S(=O)(=O)Nc2cnccc2C(=O)NCc2ccccc2)cc1` yielded a Papp of 277 nm/s. Compound `FC(F)(F)c1cccc(N2CCN(C(=S)Nc3ccccn3)CC2)c1` has a Papp of over 10000 nm/s. With `CC1=C[C@@H](CNC(C)C)[C@H](C(C)C)C[C@H]1Cc1nnc(-c2ccncc2)o1` the Papp was 6490 nm/s. `Cc1ccc(S(=O)(=O)Nc2cnccc2C(=O)NCCc2ccccc2)cc1` gave a Papp of 203 nm/s.
